From EPA's ToxRefDB 2

Legend:
rat [1] = conditions: Sub-acute repeat dose toxicity, wistar, Oral, Feed, dose end: 4 week, group: systemic
dog [2] = conditions: Subchronic oral toxicity in nonrodent, beagle, Feed, dose end: 13 week, group: systemic, systemic / clinical chemistry / alkaline phosphatase (alp/alk) / alkaline phosphatase (alp/alk) + systemic / clinical chemistry / gamma …
rabbit [3] = conditions: Prenatal developmental toxicity study, new zealand white, Oral, Gavage/Intubation, dose end: 18 GD
dog [4] = conditions: Chronic toxicity; beagle; Oral; Feed; dose end: 52 week; group: systemic; systemic / clinical chemistry / cytochrome p450, nos / cytochrome p450, nos + systemic / clinical chemistry / glutathione-s-transferase / …
rat [5] = conditions: Prenatal developmental toxicity study, wistar, Oral, Gavage/Intubation, dose end: 15 GD
rat [6] = conditions: Subchronic oral toxicity in rodents, wistar, Feed, dose end: 13 week, group: systemic
rat [7] = conditions: Sub-acute repeat dose toxicity; wistar; Oral; Feed; dose end: 4 week; group: systemic; systemic / clinical chemistry / lactic acid dehydrogenase (ldh) / lactic acid dehydrogenase (ldh) + systemic / organ weight / liver / …
mouse [8] = conditions: Carcinogenicity; cd1; Oral; Feed; dose end: 88 week; group: systemic; systemic / pathology microscopic / liver / hypertrophy + systemic / pathology microscopic / liver / inflammation + systemic / pathology …
rat [9] = conditions: Subchronic oral toxicity in rodents, wistar, Feed, dose end: 13 week, group: systemic; remark: listed apart in the source
rabbit [10] = conditions: Sub-acute dermal toxicity, new zealand white, Topical, dose end: 21 day, group: systemic, systemic / in life observation / clinical signs / desquamation + systemic / in life observation / clinical signs / erythema + systemic / …
rabbit [11] = conditions: Prenatal developmental toxicity study, new zealand white, Oral, Gavage/Intubation, dose end: 18 GD; remark: listed apart in the source
rat [12] = conditions: Sub-acute dermal toxicity, wistar, Topical, dose end: 28 day, group: systemic, systemic / clinical chemistry / cholesterol / cholesterol + systemic / clinical chemistry / globulins / globulins + systemic / clinical …
mouse [13] = conditions: Subchronic oral toxicity in rodents, cd1, Feed, dose end: 13 week, group: systemic, systemic / in life observation / body weight / body weight gain + systemic / organ weight / liver / absolute + systemic / organ weight / …
rat [14] = conditions: Subchronic oral toxicity in rodents, wistar, Feed, dose end: 13 week, group: systemic, systemic / clinical chemistry / calcium / calcium + systemic / clinical chemistry / creatinine / creatinine + systemic / clinical chemistry…
[15] = systemic / pathology microscopic / liver / lipid deposition + systemic / pathology microscopic / liver / vacuolization
[16] = systemic / pathology microscopic / liver / lipid deposition + systemic / pathology microscopic / liver / vacuolization + systemic / clinical…
[17] = group: developmental, developmental / developmental malformation / general / [other] + developmental / developmental malformation / limb / malrotated
[18] = group: maternal, systemic / in life observation / body weight / body weight gain
[19] = group: maternal, systemic / in life observation / body weight / body weight gain + systemic / in life observation / food consumption / food consumption
[20] = group: developmental, developmental / developmental malformation / bone / full supernumerary
[21] = group: developmental, developmental / developmental malformation / bone / full supernumerary + developmental / developmental malformation / bone / incomplete …
[22] = group: maternal, systemic / in life observation / body weight / body weight gain + reproductive / reproductive performance / postimplantation loss / …
[23] = systemic / pathology microscopic / thyroid gland / hypertrophy
[24] = systemic / in life observation / body weight / body weight gain + systemic / clinical chemistry / alanine aminotransferase (alt/sgpt) / …
[25] = group: developmental, systemic / in life observation / body weight / fetal weight + developmental / developmental malformation / bone / [other] + developmental / …
[26] = group: maternal, reproductive / reproductive performance / postimplantation loss / postimplantation loss + systemic / in life observation / body weight / …

## CC(C1CC1)C(O)(Cn1cncn1)c1ccc(Cl)cc1 (stereo not drawn) [Cyproconazole]
Rat [1]; [15]
  LEL: 527 mg/kg/day
  LOAEL: 527 mg/kg/day
Rat [1]; [16]
  NEL: 155 mg/kg/day
  NOAEL: 155 mg/kg/day
Dog [2]
  LEL: 20 mg/kg/day
  LOAEL: 20 mg/kg/day
  NEL: 4 mg/kg/day
  NOAEL: 4 mg/kg/day
Rabbit [3]; group: developmental, developmental / developmental malformation / general / [other]
  LOAEL: 10 mg/kg/day
Rabbit [3]; [17]
  LEL: 10 mg/kg/day
  NEL: 2 mg/kg/day
  NOAEL: 2 mg/kg/day
Rabbit [3]; [18]
  LOAEL: 50 mg/kg/day
Rabbit [3]; [19]
  LEL: 50 mg/kg/day
  NEL: 10 mg/kg/day
  NOAEL: 10 mg/kg/day
Dog [4]
  LEL: 3.2 mg/kg/day
  LOAEL: 3.2 mg/kg/day
  NEL: 1 mg/kg/day
  NOAEL: 1 mg/kg/day
Rat [5]; [20]
  LEL: 12 mg/kg/day
  LOAEL: 12 mg/kg/day
Rat [5]; [21]
  NEL: 6 mg/kg/day
  NOAEL: 6 mg/kg/day
Rat [5]; [18]
  LEL: 12 mg/kg/day
  LOAEL: 12 mg/kg/day
Rat [5]; [22]
  NEL: 6 mg/kg/day
  NOAEL: 6 mg/kg/day
Rat [6]; systemic / organ weight / liver / absolute + systemic / organ weight / liver / relative to body weight + systemic / pathology microscopic / …
  LOAEL: 24.7 mg/kg/day
Rat [6]; [23]
  LEL: 1.4 mg/kg/day
  NEL: < 1.4 mg/kg/day
Rat [6]; systemic / pathology microscopic / thyroid gland / hypertrophy + systemic / organ weight / liver / absolute + systemic / organ weight / …
  NOAEL: 1.4 mg/kg/day
Rat [7]
  LEL: 25.3 mg/kg/day
  LOAEL: 25.3 mg/kg/day
  NEL: 8.14 mg/kg/day
  NOAEL: 8.14 mg/kg/day
Mouse [8]
  LEL: 13.2 mg/kg/day
  LOAEL: 13.2 mg/kg/day
  NEL: 1.84 mg/kg/day
  NOAEL: 1.84 mg/kg/day
Rat [9]; systemic / in life observation / body weight / body weight gain
  LOAEL: 27.3 mg/kg/day
Rat [9]; [24]
  NEL: 1.5 mg/kg/day
  NOAEL: 1.5 mg/kg/day
Rat [9]; systemic / in life observation / body weight / body weight gain + systemic / in life observation / food consumption / food efficiency + …
  LEL: 27.3 mg/kg/day
Rabbit [10]
  LEL: 1000 mg/kg/day
  LOAEL: 1000 mg/kg/day
  NEL: 300 mg/kg/day
  NOAEL: 300 mg/kg/day
Rabbit [11]; group: developmental, systemic / in life observation / body weight / fetal weight
  LOAEL: 60 mg/kg/day
Rabbit [11]; [25]
  LEL: 60 mg/kg/day
  NEL: 10 mg/kg/day
  NOAEL: 10 mg/kg/day
Rabbit [11]; [26]
  LEL: 60 mg/kg/day
  LOAEL: 60 mg/kg/day
  NEL: 10 mg/kg/day
  NOAEL: 10 mg/kg/day
Rat [12]
  LEL: 100 mg/kg/day
  LOAEL: 100 mg/kg/day
  NEL: 10 mg/kg/day
  NOAEL: 10 mg/kg/day
Mouse [13]
  LEL: 43.8 mg/kg/day
  LOAEL: 43.8 mg/kg/day
  NEL: 2.2 mg/kg/day
  NOAEL: 2.2 mg/kg/day
Rat [14]
  LEL: 1.5 mg/kg/day
  LOAEL: > 21.4 mg/kg/day
  NEL: < 1.5 mg/kg/day
  NOAEL: ≥ 21.4 mg/kg/day
